Counter-ions that a name gives are not always drawn.
Legend:
[1] = target: Vasopressin 1 (V1) receptor (Homo sapiens, UniProt P37288); experiment: Vasopressin 1 (V1) Receptor Binding; conditions: competition with 1.5 nM 3H-vasopressin, platelet membrane preparation from blood of normal subjects, 15 minutes at 30° C.
human V2 receptor = human V2 receptor (Homo sapiens, UniProt P30518); experiment: Vasopressin 2 (V2) Receptor Binding; conditions: competition with 0.5 nM 3H-vasopressin, membranes of CHO cells expressing human V2 receptor, 2 hours at 22° C.
Sequence of human V2 receptor (P30518 whole entry): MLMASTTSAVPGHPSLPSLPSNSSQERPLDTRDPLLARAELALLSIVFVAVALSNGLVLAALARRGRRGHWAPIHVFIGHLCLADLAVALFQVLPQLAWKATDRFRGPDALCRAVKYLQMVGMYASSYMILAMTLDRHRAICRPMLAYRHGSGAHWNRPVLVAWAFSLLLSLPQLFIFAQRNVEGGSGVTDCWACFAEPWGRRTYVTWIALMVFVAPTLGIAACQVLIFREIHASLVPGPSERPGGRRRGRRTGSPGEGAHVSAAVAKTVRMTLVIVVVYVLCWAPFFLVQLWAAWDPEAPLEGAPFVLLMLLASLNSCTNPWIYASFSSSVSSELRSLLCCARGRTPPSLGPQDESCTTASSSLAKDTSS

Sequence of Vasopressin 1 (V1) receptor (P37288 whole entry): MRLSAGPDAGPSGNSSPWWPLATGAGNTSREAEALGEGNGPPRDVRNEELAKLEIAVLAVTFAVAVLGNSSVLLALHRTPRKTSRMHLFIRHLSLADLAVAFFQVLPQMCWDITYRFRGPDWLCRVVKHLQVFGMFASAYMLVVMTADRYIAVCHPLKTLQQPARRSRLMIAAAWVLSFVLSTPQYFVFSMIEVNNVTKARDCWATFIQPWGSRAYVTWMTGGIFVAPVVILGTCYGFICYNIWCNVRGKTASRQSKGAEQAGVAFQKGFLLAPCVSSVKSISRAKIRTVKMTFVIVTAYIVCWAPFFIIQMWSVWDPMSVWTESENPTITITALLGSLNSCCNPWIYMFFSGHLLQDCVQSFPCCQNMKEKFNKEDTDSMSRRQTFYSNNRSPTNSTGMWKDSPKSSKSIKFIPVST

| SMILES | IC50 [1] | IC50 (human V2 receptor) |
| --- | --- | --- |
| CCOC(=O)CCCCCOc1cc(C)ccc1N(C)C(=O)c1ccc(NC(=O)c2ccccc2OCCCN)cc1 [17-20), 4-[2-(3-Aminoprop-1-yl)oxybenzoyl]amino-N-[2-(5-ethoxycarbonylpent-1-yl)oxy-4-methyl]phenyl-N-methylbenzamide hydrochoiride] | 31 nM | 1300 nM |
| Cc1ccc(N(C)C(=O)c2ccc(NC(=O)c3ccccc3N)cc2)c(OCCCCCC(=O)O)c1 [5-2), 4-(2-Aminobenzoyl)amino-N-methyl-N-[2-(5-carboxypent-1-yloxy)-4-methylphenyl]benzamide] | 51 nM | 1300 nM |
| CN1CCN(C(=O)CCCCCOc2ccccc2N(C)C(=O)c2ccc(NC(=O)c3ccccc3OCCCN)cc2)CC1 [Example 16, 4-[2-[(3-aminoprop-1-yl)oxy]benzoyl]amino-N-methyl-N-[2-[5-(4-methylpiperazin-1-yl)carbonylpent-1-yloxy]phenyl]benzamide dihydrochloride] | 14 nM | 1400 nM |
